Where “and” joins values, the source holds several entries; their conditions need not be identical. Equal entries are not always repeated. Entries after “also recorded” stand apart in the source; their conditions may differ. Where two headings read alike, the source gives them in different places.
Assays:
[1] = molecular target: α7/5HT3A chimera receptor (hα7/m5HT3A), used for α7-nAChRs (UniProt P23979+P36544, M226I/T225I); test: Intact cell competitive radioligand binding assay ([3H]-(±)-epibatidine, SPA), LGIC-CNiFERs; settings: read-out: Kd ± SD, α7-nAChRs; >10 = did not pass initial screen at 10 μM
α7-nAChRs = molecular target: T1, α7-nAChRs (Homo sapiens, UniProt P36544); test: FRET functional assay (agonist/antagonist) using LGIC-CNiFERs; format: cell-based; settings: for EC50: in presence of 10 μM PNU-120596, * partial agonist, read-out: Agonist EC50 ± SD, α7; for Functional properties at α7-nAChRs (agonist / antagonist): functional screening and characterization
T1 construct: expressed in transfected cells; host or cells: HEKtsA201 cells co-expressing TN-XXL
Experimental: (§1) Initially, the agonist properties of tested compounds were assessed directly. […] All α7-nAChR functional assays were performed in the presence of PNU-120596, an α7-nAChR positive allosteric modulator (PAM), to increase signal and delay the sensitization state of α7-nAChRs enabling the measurement of more prolonged FRET signals.^29 Compounds having agonist responses of >0.20 were determined for EC50, and compounds having inhibition fraction of >0.50 were determined for KA.^25 EC50>13.3 μM and KA>10 μM which are a screening concentration for agonist and antagonist, respectively were reported compounds not taken for further in the screening of receptor occupation and responses.
(§2) Agonist and antagonist elicited responses were characterized using the above CNiFER cell expressing Cys-loop ligand-gated ion channel (LGIC) receptors. […] A 96-well black, clear-bottom microplate (Greiner bio-one, Germany) was coated with poly-D-lysine (Sigma-Aldrich, St. Louis, Mo.) 50 μL/well for 30 min and washed out with Phosphate-Buffered Saline (PBS) (Corning, Cellgro, Manassas, Va.) before plating the cells. After plating and incubation at 37° C. for 1 day, the media was replaced with 100 μL of artificial cerebrospinal fluid (aCSF: 121 mM NaCl, 5 mM KCl, 26 mM NaHCO3, 1.2 mM NaH2PO4H2O, 10 mM glucose, 2.4 mM CaCl2, 1.3 mM MgSO4, 5 mM HEPES, pH 7.4) for 4032 and 5HT3A receptors, whereas 10 μM PNU-120596 (Tocris Bioscience, Bristol, UK) in aCSF with 30 min incubation at 37° C. was used for α7-nAChR. The tested compounds were prepared in aCSF for all receptors except α7-nAChR, where 10 μM PNU-120596, a positive allosteric modulator (PAM) was used. The prepared compounds were added in a separate 96-well polypropylene plate (Costar, Corning, N.Y.). Experiments were conducted at 37° C. using 436-nm excitation. Emitted light was collected at 485 nm and 528 nm. Basal fluorescence was recorded for 30 s, followed by addition of 50 μL of ligand (first addition). Measurements were made at 3.84 s intervals for 2 min to measure the agonistic effect. […] Agonist and antagonist properties were sequentially screened at the final concentration of 13.3 and 10 μM, respectively, which differed from the screening concentration from intact cell binding assay (10 μM).

5HT3A receptors = molecular target: T2, 5HT3A receptors (Mus musculus, UniProt P23979); test: as above; format: cell-based; settings: for Functional properties at 5HT3A receptors (agonist / antagonist, type): functional screening and characterization
T2 construct: expressed in transfected cells; host or cells: HEK293 cells co-expressing TN-XXL
T2 sequence (P23979 24-489): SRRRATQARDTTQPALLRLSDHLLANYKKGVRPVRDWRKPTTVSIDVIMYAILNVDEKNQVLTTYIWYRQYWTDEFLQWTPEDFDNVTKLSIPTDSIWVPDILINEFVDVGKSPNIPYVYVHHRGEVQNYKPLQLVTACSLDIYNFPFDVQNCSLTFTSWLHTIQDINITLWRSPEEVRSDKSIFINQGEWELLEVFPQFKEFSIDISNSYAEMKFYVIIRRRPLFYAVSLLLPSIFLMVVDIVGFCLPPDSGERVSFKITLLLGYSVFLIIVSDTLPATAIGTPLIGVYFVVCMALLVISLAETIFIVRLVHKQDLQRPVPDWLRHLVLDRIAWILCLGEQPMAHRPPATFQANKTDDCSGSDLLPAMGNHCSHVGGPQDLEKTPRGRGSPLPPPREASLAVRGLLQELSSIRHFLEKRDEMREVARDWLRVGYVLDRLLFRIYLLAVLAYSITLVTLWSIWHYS
Experimental: as §1, §2

α4β2-nAChRs = molecular target: T3, α4β2-nAChRs (Homo sapiens, UniProt P17787+P43681); test: as above; format: cell-based; settings: for Functional properties at α4β2-nAChRs (agonist / antagonist, type): functional screening and characterization
T3 construct: expressed in transfected cells; host or cells: HEKtsA201 cells co-expressing TN-XXL
Experimental: as §1, §2

[2] = >10 = did not pass initial screen
[3] = competitive antagonist (^C), >10 = did not pass initial screen, vs 5-HT, read-out: Antagonist KA ± SD, 5HT3A
[4] = read-out: Agonist EC50 ± SD, 5HT3A
[5] = read-out: Antagonist KA ± SD, α4β2
[6] = * partial agonist, >10 = did not pass initial screen, read-out: Agonist EC50 ± SD, 5HT3A
[7] = competitive antagonist (^C), >10 = did not pass initial screen, vs (±)-epibatidine, read-out: Antagonist KA ± SD, α4β2
[8] = competitive antagonist (^C), >10 = did not pass initial screen, vs (±)-epibatidine, read-out: Antagonist KA ± SD, α7
[9] = non-competitive antagonist (^NC), read-out: Antagonist KA ± SD, α7, non-competitive
[10] = Antagonist KA ± SD, α4β2, competitive antagonist (^C), >10 = did not pass initial screen, vs (±)-epibatidine
[11] = non-competitive antagonist (^NC)

SMILES	EC50 (α7-nAChRs; [2])	Functional properties at 5HT3A receptors (agonist / antagonist, type) (5HT3A receptors)	Kd (5HT3A receptors; [3]) [µM]	EC50 (5HT3A receptors; [4]) [µM]	Kd (α4β2-nAChRs; [5]) [µM]	other results
c1cc2cc(-c3cn(CCCCN4CCCCC4)nn3)ccc2[nH]1 [IND3, 5-(1-(4-(Piperidin-1-yl)butyl)-1H-1,2,3-triazol-4-yl)-1H-indole]	0.91 µM	–	–	–	–	Kd [1]: 13.8 µM
c1cc2cc(-c3cn(CCCCN4CCOCC4)nn3)ccc2[nH]1 [IND6, 5-(1-(4-(Morpholin-4-yl)butyl)-1H-1,2,3-triazol-4-yl)-1H-indole]	12.2 µM	–	–	–	–	–
c1cc2cc(-c3cn(CCN4CCNCC4)nn3)ccc2[nH]1 [IND9, 5-(1-(2-(Piperazin-1-yl)ethyl)-1H-1,2,3-triazol-4-yl)-1H-indole]	–	mix-competitive antagonist	–	–	–	–
c1cc2cc(-c3cn(C4CCCNC4)nn3)ccc2[nH]1 (stereo not shown) [IND10, 5-(1-(Piperidin-3-yl)-1H-1,2,3-triazol-4-yl)-1H-indole]	0.66 µM	mix-competitive antagonist	–	–	–	–
c1cc2cc(-c3cn(CCN4CCCCCC4)nn3)ccc2[nH]1 [IND14, 5-(1-(2-(Azepan-1-yl)ethyl)-1H-1,2,3-triazol-4-yl)-1H-indole]	0.78 µM	competitive antagonism	–	–	–	–
c1cc2c(cc1-c1cn(CCN3CCCCC3)nn1)OCO2 [PPRD1, 1-(2-(4-(Benzo-1,3-dioxol-5-yl)-1,2,3-triazol-1-yl)ethyl)piperidine]	7.4 ± 0.7 µM	–	> 10	> 10	> 10	–
Nc1ccc(-c2cn(CCN3CCCCC3)nn2)cc1 [PPRD2, 1-(2-(4-Aminophenyl-1,2,3-triazol-1-yl)ethyl)piperidine]	0.38 µM	–	>10	–	–	EC50 (5HT3A receptors; [6]): > 10 µM; Kd (α4β2-nAChRs; [7]): >10 µM
COc1ccc(-c2cn(CCN3CCCCC3)nn2)cc1 [PPRD3, 1-(2-(4-(4-Methoxyphenyl)-1,2,3-triazol-1-yl)ethyl)piperidine]	15 µM	–	> 10	> 10	> 10	Functional properties at α7-nAChRs (agonist / antagonist) (α7-nAChRs): partial agonists
Cc1ccc(-c2cn(CCN3CCCCC3)nn2)cc1 [PPRD4, 1-(2-(4-Tolyl-1,2,3-triazol-1-yl)ethyl)piperidine]	3.1 ± 0.8 µM	–	> 10	> 10	> 10	–
COc1ccc2cc(-c3cn(CCN4CCCCC4)nn3)ccc2c1 [PPRD6, 1-(2-(4-(6-Methoxynaphthalen-2-yl)-1H-1,2,3-triazol-1-yl)ethyl)piperidine]	> 10 µM	–	> 10	> 10	> 10	–
Nc1ccc(-c2cn(CCN3CCCCC3)nn2)cc1 [PPRD8, 1-(2-(4-Aminophenyl-1,2,3-triazol-1-yl)ethyl)piperidine]	2.9 µM	competitive antagonist	39	–	–	Kd (α4β2-nAChRs; [7]): >10 µM
Nc1ncnc2c1ncn2Cc1cn(CCN2CCCCC2)nn1 [PPRD10, 9-((1-(2-(Piperidin-1-yl)ethyl)-1,2,3-triazol-4-yl)methyl)-purin-6-amine]	> 10 µM	–	> 10	> 10	> 10	Kd (α7-nAChRs; [8]): 11.6 µM; Kd (α7-nAChRs; [9]): 18.9 µM
COC(=O)c1ccc2[nH]cc(-c3cn(CCN4CCCCC4)nn3)c2c1 [PPRD11, Methyl 3-(1-(2-(piperidin-1-yl)ethyl)-1H-1,2,3-triazol-4-yl)-1H-indole-5-carboxylate]	–	–	> 10	> 10	6.5 ± 1.7	Kd (α7-nAChRs; [8]): 6.6 ± 2.2 µM; Functional properties at α7-nAChRs (agonist / antagonist) (α7-nAChRs): weak and non-selective α7-nAChR antagonists; Kd (α7-nAChRs; [9]): 6.6 ± 1.7 µM; Functional properties at α4β2-nAChRs (agonist / antagonist, type) (α4β2-nAChRs): α4β2-nAChR antagonists; also recorded: competitive antagonist
Clc1ccc(-c2cn(CCN3CCCCC3)nn2)cc1 [PPRD13, 1-(2-(4-(4-Chlorophenyl)-1,2,3-triazol-1-yl)ethyl)piperidine]	17.6 ± 4.6 µM	–	> 10	> 10	> 10	Functional properties at α7-nAChRs (agonist / antagonist) (α7-nAChRs): partial agonists
COc1ccc(-c2cn(C3CN4CCC3CC4)nn2)cc1 (stereo not shown) [QND3, 3-(4-(4-Methoxyphenyl)-1,2,3-triazol-1-yl)quinuclidine]	0.1 µM	5HT3A receptor agonist properties	–	–	–	EC50 (5HT3A receptors): 5.7 ± 1.7 µM; Kd (α4β2-nAChRs; [10]): > 10 µM
Cc1ccc(-c2cn(C3CN4CCC3CC4)nn2)cc1 (stereo not shown) [QND4, 3-(4-Tolyl-1,2,3-triazol-1-yl)quinuclidine]	0.2 µM	antagonists and 5HT3A antagonist properties and mix-competitive antagonist	–	–	–	Antagonist KA ± SD, 5HT3A (5HT3A receptors; competitive antagonist (^C), >10 = did not pass initial screen, vs 5-HT): 0.50 ± 0.27^C, μM; Antagonist KA ± SD, 5HT3A, non-competitive (5HT3A receptors; [11]): 0.53 ± 0.18^NC μM; Kd (α4β2-nAChRs; [7]): >10 µM
O=Cc1c[nH]c2ccc(-c3cn(C4CN5CCC4CC5)nn3)cc12 (stereo not shown) [QND5, 5-(1-(Quinuclidin-3-yl)-1,2,3-triazol-4-yl)-indole-3-carbaldehyde]	0.27 µM	–	–	0.16 ± 0.04	–	Kd (α4β2-nAChRs; [10]): > 10 µM
c1ccc(-c2ccc(-c3cn(C4CN5CCC4CC5)nn3)cc2)cc1 (stereo not shown) [QND7, 3-(4-(Biphenyl-4-yl)-1,2,3-triazol-1-yl)quinuclidine]	–	–	> 10	> 10	–	Kd (α7-nAChRs; Antagonist KA ± SD, α7, competitive antagonist (^C), >10 = did not pass initial screen, vs (±)-epibatidine): 6.7 ± 2.5 µM; Functional properties at α7-nAChRs (agonist / antagonist) (α7-nAChRs): antagonistic properties; also recorded: weak α7-nAChR antagonist; Kd (α7-nAChRs; [9]): 26 ± 10 µM; Kd (α4β2-nAChRs; [10]): > 10 µM
Nc1ncnc2c1ncn2Cc1cn(C2CN3CCC2CC3)nn1 (stereo not shown) [QND10, 9-((1-(Quinuclidin-3-yl)-1,2,3-triazol-4-yl)methyl)-purin-6-amine]	29.5 µM and 30 µM	–	> 10	> 10	–	Kd (α4β2-nAChRs; [10]): > 10 µM
COC(=O)c1ccc2[nH]cc(-c3cn(C4CN5CCC4CC5)nn3)c2c1 (stereo not shown) [QND11, Methyl 3-(1-(quinuclidin-3-yl)-1,2,3-triazol-4-yl)-indole-5-carboxylate]	1.61 ± 0.36 µM	antagonists; also recorded: non-competitive antagonist	–	–	–	Kd (5HT3A receptors; non-competitive antagonist (^NC), read-out: Antagonist KA ± SD, 5HT3A, non-competitive): 0.08 ± 0.01 µM; Kd (α4β2-nAChRs; [10]): 9.3 ± 4.3 µM; Functional properties at α4β2-nAChRs (agonist / antagonist, type) (α4β2-nAChRs): competitive antagonism; Kd (α4β2-nAChRs; read-out: Antagonist KA ± SD, α4β2, non-competitive): 37 ± 22 µM
Clc1ccc(-c2cn(C3CN4CCC3CC4)nn2)cc1 (stereo not shown) [QND13, 3-(4-chlorophenyl-1,2,3-triazol-1-yl)quinuclidine]	1.01 µM	5HT3A receptor agonist properties	–	–	–	EC50 (5HT3A receptors; [6]): 4.9 ± 1.2 µM; Antagonist KA ± SD, α4β2 (α4β2-nAChRs; competitive antagonist (^C), >10 = did not pass initial screen, vs (±)-epibatidine): 11.2 ± 2.6^C, μM; Functional properties at α4β2-nAChRs (agonist / antagonist, type) (α4β2-nAChRs): mix-competitive antagonist; Antagonist KA ± SD, α4β2, non-competitive (α4β2-nAChRs; [11]): 23 ± 6^NC μM
